The values that follow come from patent US10052322B2 (SIGNAL PHARMACEUTICALS, LLC, priority 2013, dated 2018).

Holding throughout (type): physicochemical
A short description of series [1]: Evaporation experiments (XRPD). The conditions noted are these: evaporation at 50° C. The method, then:
(§1) All of the solid samples generated in the polymorph screen were analyzed by XRPD. XRPD analysis was conducted on a Thermo ARL X'TRA X-ray powder diffractometer using Cu Kα radiation at 1.54 Å. The instrument was equipped with a fine focus X-ray tube. The voltage and amperage of the X-ray generator were set at 45 kV and 40 mA, respectively. The divergence slits were set at 4 mm and 2 mm and the measuring slits were set at 0.5 mm and 0.2 mm. Diffracted radiation was measured using a Peltier-cooled Si (Li) solid-state detector. A theta-two theta continuous scan at 2.40/min (0.5 sec/0.02° step) from 1.5° to 40° 2θ was used. A sintered alumina standard was used to check the peak positions. […] The resulting mixture was agitated for at least 24 hours at room temperature and 50° C. separately. Upon reaching equilibrium, the saturated supernatant solution was removed and allowed to evaporate slowly in an open vial under nitrogen at room temperature and 50° C., respectively. The solid resulting from the equilibration was filtered and air-dried before analysis.

Series [2] is described as follows: Hygroscopicity by dynamic vapor sorption (DVS). The method, then:
Hygroscopicity was determined on a Surface Measurement Systems DVS. Typically a sample size of 2-10 mg was loaded into the DVS instrument sample pan and the sample was analyzed on a DVS automated sorption analyzer at room temperature. […] The relative humidity was then decreased in a similar manner to accomplish a full adsorption/desorption cycle. For selected hydrated forms, the analysis started at 50% RH and increased to 90% RH at 10% RH step. The relative humidity was then decreased in a similar manner to 0% RH followed by increasing to 50% RH.

A short description of series [3]: Equilibration / slurry experiments of Form A (XRPD). The method, then: as §1
The nature of series [4]: Form transfer / competitive slurry experiments. The method, then: The resulting mixture was agitated for at least 24 hours at room temperature and 50° C. separately. Upon reaching equilibrium, the saturated supernatant solution was removed and allowed to evaporate slowly in an open vial under nitrogen at room temperature and 50° C., respectively. The solid resulting from the equilibration was filtered and air-dried before analysis.

Series [5] is described as follows: Solubility of Form A in selected aqueous and organic solvents (HPLC). Conditions: thermodynamic from solid, read-out: Solubility (mg/mL) (room temperature). The method, then:
Solubility of Form A in selected aqueous and organic solvents was determined by mixing solid with solvents at room temperature. […] Solubility of Form B and Form C in water was also determined by the same HPLC method.

[6] abbreviates: humidity from about 0% to about 50% RH at about 25° C.
Where [7] appears, read: humidity from about 0% to about 95% RH at about 25° C.
Where [8] appears, read: humidity increased from about 0% to about 80% RH.
Where [9] appears, read: humidity increased from about 80% to about 90% RH.
Setting [10] is: slurry in MeOH/water (1:1), seed None, 1 week.

≈ marks a conversion by molar mass, not a printed value. Entries after “also recorded” stand apart in the source; their conditions may differ. Like-named read-outs stand apart in the source and are kept apart here.

On to `CCN1C(=O)CNc2ncc(-c3ccc(-c4nnc[nH]4)nc3C)nc21` [Form A, 1-ethyl-7-(2-methyl-6-(1H-1,2,4-triazol-3-yl)pyridin-3-yl)-3,4-dihydropyrazino[2,3-b]pyrazin-2(1H)-one], for which the “XRPD Result” value in series [1] (Methanol) is recorded as “Form A + B”; in series [1] (Tetrahydrofuran) it was “Amorphous, degraded”; in series [4] (slurry in Acetonitrile, seed None, 2 weeks), “Form A”; in series [4] (slurry in EtOH/H2O (1:1), seed Form B, 1 week) it was “Form A”; in series [4] (slurry in EtOH/H2O (1:1), seed Form C, 1 week) it was “Form A”; in series [4] (slurry in Ethanol/Water (1:1), seed None, 2 weeks), “Form A”. The “XRPD Result” value was “Form A” in series [4] (slurry in H2O, seed Form B, 1 week); “Form A + C” in series [4] (slurry in H2O, seed Form C, 7 weeks); “Form A” in series [4] (slurry in H2O, seed None, 2 weeks); “Form A” in series [4] (slurry in MTBE, seed None, 2 weeks); “Form A” in series [4] (slurry in MeOH, seed Form B, 1 week); “Form A” in series [4] (slurry in MeOH, seed Form C, 1 week). Besides, in series [4] (slurry in MeOH, seed None, 2 weeks), the “XRPD Result” value is “Form A”. The hygroscopicity result in series [2] (DVS, in words) is on record as “non-hygroscopic; also recorded: not hygroscopic”. For the same molecule, in series [2], the “Moisture sorption (wt % at 90% RH)” value is 0.4 wt %. For the same molecule, the weight gain result in series [2] (setting [6]) is “about 0.2 % w/w”; in series [2] (setting [7]), “about 0.5 % w/w”. Further, the results for the mass gain result in series [2] (setting [8]) and in series [2] (setting [9]) were “less than 0.35 % w/w” and “about 0.08 % w/w”, respectively. For the same molecule, the “XRPD Result 24 hours” value in series [3] (equilibration at room temperature, 2-Propanol) was “Form A”; in series [3] (equilibration at room temperature, Acetone) it was “Form A”; in series [3] (equilibration at room temperature, Acetonitrile), “Form A”; in series [3] (equilibration at room temperature, Ethanol), “Form A”; in series [3] (equilibration at room temperature, Ethanol/Water (1:1)), “Form A”; in series [3] (equilibration at room temperature, Ethyl acetate) it was “Form A”. The “XRPD Result 24 hours” value in series [3] (equilibration at room temperature, Heptane) is “Form A”; in series [3] (equilibration at room temperature, Methanol), “Form A”; in series [3] (equilibration at room temperature, Methyl ethyl ketone), “Form A”; in series [3] (equilibration at room temperature, Methyl t-butyl ether), “Form A”; in series [3] (equilibration at room temperature, Methylene chloride), “Form A”; in series [3] (equilibration at room temperature, Tetrahydrofuran) it was “Form A”. The “XRPD Result 24 hours” value in series [3] (equilibration at room temperature, Toluene) is “Form A”; in series [3] (equilibration at room temperature, Water), “Form A”; in series [3] (equilibration at room temperature, n-Butanol), “Form A”; in series [3] (slurry at 50° C., 2-Propanol), “Form A”; in series [3] (slurry at 50° C., Acetone), “Form A”; in series [3] (slurry at 50° C., Acetonitrile) it was “Form A”. Further, the “XRPD Result 24 hours” value in series [3] (slurry at 50° C., Ethanol) is given as “Form A”; in series [3] (slurry at 50° C., Ethanol/Water (1:1)) it was “Form A”; in series [3] (slurry at 50° C., Ethyl acetate), “Form A”; in series [3] (slurry at 50° C., Heptane), “Form A”; in series [3] (slurry at 50° C., Methanol), “Form A”; in series [3] (slurry at 50° C., Methyl ethyl ketone), “Form A”. Also, the “XRPD Result 24 hours” value is given as “Form A” in series [3] (slurry at 50° C., Tetrahydrofuran); “Form A” in series [3] (slurry at 50° C., Toluene); “Form A” in series [3] (slurry at 50° C., Water); “Form A” in series [3] (slurry at 50° C., n-Butanol). The solubility at 24 h in series [5] (0.1N HCl, simulated gastric fluid) was 7.1 mg/mL (≈ 21100 µM); in series [5] (0.9% NaCl, saline or isotonic), 0.03 mg/mL (≈ 89.2 µM); in series [5] (acetone, organic solvent or mixture), 0.46 mg/mL (≈ 1370 µM); in series [5] (acetonitrile, organic solvent or mixture) it was 0.14 mg/mL (≈ 416 µM); in series [5] (aqueous buffer, Acetate buffer pH 4.0), 0.06 mg/mL (≈ 178 µM); in series [5] (aqueous buffer, Phosphate buffer pH 6.8) it was 0.05 mg/mL (≈ 149 µM). Also, the solubility at 24 h in series [5] (ethanol, organic solvent or mixture) was 0.5 mg/mL (≈ 1490 µM); in series [5] (ethyl acetate, organic solvent or mixture) it was 0.32 mg/mL (≈ 951 µM); in series [5] (heptane, organic solvent or mixture), < 0.005 mg/mL; in series [5] (isopropanol, organic solvent or mixture) it was 0.28 mg/mL (≈ 832 µM); in series [5] (methanol, organic solvent or mixture) it was 1.13 mg/mL (≈ 3360 µM); in series [5] (tetrahydrofuran, organic solvent or mixture) it was 5.5 mg/mL (≈ 16400 µM). Further, the solubility at 24 h in series [5] (Water, room temperature, 24 hours) was determined as 0.08 mg/mL (≈ 238 µM). For the same molecule, the solubility in series [5] (organic solvent or mixture, Dimethyl Sulfoxide, estimated from visual observation of complete dissolution) was > 50 mg/mL.

Consider `CCN1C(=O)CNc2ncc(-c3ccc(-c4nnc[nH]4)nc3C)nc21` [Form B, 1-ethyl-7-(2-methyl-6-(1H-1,2,4-triazol-3-yl)pyridin-3-yl)-3,4-dihydropyrazino[2,3-b]pyrazin-2(1H)-one], for which the “Moisture sorption (wt % at 90% RH)” value in series [2] (listed as B) was 20.7 wt %. Moreover, in series [4] (slurry in Acetonitrile, seed None, 3 days), the “XRPD Result” value was “Form A”.

With `CCN1C(=O)CNc2ncc(-c3ccc(-c4nnc[nH]4)nc3C)nc21` [Form C, 1-ethyl-7-(2-methyl-6-(1H-1,2,4-triazol-3-yl)pyridin-3-yl)-3,4-dihydropyrazino[2,3-b]pyrazin-2(1H)-one], the “Moisture sorption (wt % at 90% RH)” value in series [2] (listed as C) was found to be 12.2 wt %. In addition, the “XRPD Result” value in series [4] (slurry in H2O, seed None, 1 week) was “Form C”; in series [4] (setting [10]), “Form C”.

`CCN1C(=O)CNc2ncc(-c3ccc(-c4nnc[nH]4)nc3C)nc21` [Form E, 1-ethyl-7-(2-methyl-6-(1H-1,2,4-triazol-3-yl)pyridin-3-yl)-3,4-dihydropyrazino[2,3-b]pyrazin-2(1H)-one]: the “Moisture sorption (wt % at 90% RH)” value in series [2] turned out to be 5.9 wt %. For the same molecule, the weight gain result in series [2] (setting [6]) is listed as “about 2.3 % w/w”; in series [2] (setting [7]), “about 5.8 % w/w”. The values for the mass gain entry in series [2] (setting [8]) and in series [2] (setting [9]) were “less than 4 % w/w” and “about 1.1 % w/w”, respectively. Also, the “XRPD Result” value in series [4] (slurry in Acetonitrile, seed None, 1 week) was “Form A”; in series [4] (setting [10]), “Form C”.
